Assay results reported in ChEMBL document CHEMBL1641406, “Discovery of a 1,5-dihydrobenzo[b][1,4]diazepine-2,4-dione series of inhibitors of HIV-1 capsid assembly” (Bioorg Med Chem Lett, 2011).

What was measured:
[1] = tested on: Human immunodeficiency virus 1; assay: Antiviral activity against HIV1 assessed as inhibition of capsid assembly; assay type: functional
[2] = tested on: Human immunodeficiency virus 1; assay: Antiviral activity against HIV1 infected in human C8166 cells assessed as inhibition of viral replication after 3 days by luciferase assay; assay type: functional, organism-based; details: Human immunodeficiency virus 1, C8166, 72 h
[3] = Cytotoxicity against human C8166 cells; assay type: cell-based
[4] = tested on: Human immunodeficiency virus 1; assay: Antiviral activity against HIV1 expressing reverse transcriptase K103N/Y181C double mutant infected in human C8166 cells assessed as inhibition of viral replication after 3 days by luciferase assay; assay type: functional, organism-based; details: Human immunodeficiency virus 1, C8166, 72 h
[5] = tested on: Human immunodeficiency virus 1; assay: Antiviral activity against HIV1 expressing wild type reverse transcriptase infected in human C8166 cells assessed as inhibition of viral replication after 3 days by luciferase assay; assay type: functional, organism-based; details: Human immunodeficiency virus 1, C8166, 72 h
[6] = tested on: Human immunodeficiency virus 1; assay: Antiviral activity against HIV1 assessed as inhibition of capsid assembly at 3.8 uM; assay type: functional
Rous sarcoma virus = assay: Antiviral activity against Rous sarcoma virus assessed as inhibition of capsid assembly; assay type: functional
[7] = tested on: Human immunodeficiency virus 1; assay: Antiviral activity against HIV1 assessed as inhibition of capsid assembly at 1.4 uM; assay type: functional

Row | SMILES | IC50 [1] | EC50 [2] | also measured
1 | CCn1cc2c(n1)N(C)c1ccc(Cl)cc1N(c1ccccc1)C2=O | 2200 nM |  | 
2 | CN(C)CCn1cc2c(n1)N(C)c1ccc(Cl)cc1N(c1ccccc1)C2=O | 6800 nM | 16000 nM | 
3 | COCCNCc1ccc(Cn2cnc3c2C(=O)N(c2ccccc2)c2cc(Cl)ccc2N3C)cc1 | 170 nM | 900 nM | 
4 | CN1C(=O)C(c2ccccc2)C(=O)N(c2ccccc2)c2cc(C(F)(F)F)ccc21 (configuration not stated) | 1200 nM |  | CC50 [3]: > 20000 nM; EC50 [4]: 2700 nM; EC50 [5]: 3000 nM
5 | CN1c2ccc(Cl)cc2N(c2ccccc2)C(=O)c2c1ncn2CCN | 370 nM | 4800 nM | 
6 | C=CCC1C(=O)N(C)c2ccc(C(F)(F)F)cc2N(c2ccccc2)C1=O (configuration not stated) | 16000 nM |  | 
7 | O=C1Nc2ccc(Cl)cc2NC(=O)/C1=C/NCCO | 850 nM |  | 
8 | CN1C(=O)C(Cc2ccccc2)C(=O)N(c2ccccc2)c2cc(C(F)(F)F)ccc21 (configuration not stated) |  |  | inhibition at 3.8 µM [6]: 40%; EC50 [5]: > 20000 nM
9 | COCCN/C=C1\C(=O)N(C)c2ccc(C(F)(F)F)cc2N(c2ccc(Cl)cc2)C1=O | 4000 nM |  | 
10 | COCCn1cc2c(n1)N(C)c1ccc(Cl)cc1N(c1ccccc1)C2=O | 1500 nM | 16000 nM | 
11 | CCn1cnc2c1C(=O)N(c1ccccc1)c1cc(Cl)ccc1N2C | 220 nM | 5200 nM | 
12 | COCCN/C=C1\C(=O)N(C)c2ccc(C(F)(F)F)cc2N(c2ccccc2)C1=O | 890 nM |  | 
13 | O=C1Nc2ccc(Cl)cc2NC(=O)/C1=C/NCc1ccncc1 | 670 nM |  | 
14 | COCCN/C=C1\C(=O)N(C)c2ccc(C3CC3)cc2N(c2ccccc2)C1=O | 1400 nM |  | 
15 | COCCN/C=C1\C(=O)N(C)c2c(Cl)cccc2N(c2ccccc2)C1=O | 2600 nM |  | 
16 | CN1c2ccc(Cl)cc2N(c2ccccc2)C(=O)c2c1ncn2Cc1ccc(C(=O)O)cc1 | 430 nM | 6100 nM | 
17 | CN1c2ccc(Cl)cc2N(c2ccccc2)C(=O)c2cn(C)nc21 | 700 nM | 7000 nM | 
18 | CN1c2ccc(Cl)cc2N(c2ccccc2)C(=O)c2[nH]cnc21 | 210 nM | 3800 nM | 

Row | SMILES | IC50 [1] | EC50 [2] | also measured
19 | CN1c2ccc(Cl)cc2N(c2ccccc2)C(=O)c2cn(Cc3ccc(C(=O)O)cc3)nc21 | 600 nM | 2000 nM | 
20 | COCCN/C=C1\C(=O)Nc2ccc(Cl)cc2NC1=O | 1400 nM |  | 
21 | CCCCN/C=C1\C(=O)Nc2ccc(Cl)cc2N(c2ccccc2)C1=O | 1400 nM | 17000 nM | IC50 (Rous sarcoma virus): > 100000 nM
22 | CCN1C(=O)/C(=C\NCCOC)C(=O)Nc2cc(Cl)ccc21 | 470 nM |  | 
23 | COCCN/C=C1\C(=O)N(C)c2ccccc2N(c2cccs2)C1=O | 500 nM |  | 
24 | COCCN/C=C1/C(=O)Nc2cc(Cl)ccc2N(c2ccc(C)cc2)C1=O | > 9000 nM |  | 
25 | COCCN/C=C1\C(=O)N(C)c2cc(Cl)ccc2N(c2ccccc2)C1=O | 1600 nM |  | 
26 | COCCn1cnc2c1C(=O)N(c1ccccc1)c1cc(Cl)ccc1N2C | 360 nM | 5800 nM | 
27 | CN1C(=O)C(CCc2ccccc2)C(=O)N(c2ccccc2)c2cc(C(F)(F)F)ccc21 (configuration not stated) |  |  | inhibition at 1.4 µM [7]: 10%
28 | CN1c2ccc(Cl)cc2N(c2ccccc2)C(=O)c2c1ncn2Cc1cccc(O)c1 | 560 nM | 7300 nM | 
29 | CN1c2ccc(Cl)cc2N(c2ccccc2)C(=O)c2c1ncn2C | 300 nM | 2900 nM | 
30 | COCCN/C=C1\C(=O)N(C)c2ccc(C(F)(F)F)cc2N(c2cccc(Cl)c2)C1=O | 7800 nM |  | 
31 | O=C1CC(=O)Nc2cc(Cl)ccc2N1 | > 46000 nM |  | 
32 | CN1c2ccc(Cl)cc2N(c2ccccc2)C(=O)c2c[nH]nc21 | 300 nM | 7800 nM | 
33 | COCCN/C=C1\C(=O)N(C)c2cccc(Cl)c2N(c2ccccc2)C1=O | 930 nM |  | 
34 | CN1c2ccc(Cl)cc2N(c2ccccc2)C(=O)c2cn(Cc3cccc(O)c3)nc21 | 600 nM | 4700 nM | 
35 | COCCN/C=C1/C(=O)Nc2cc(Cl)ccc2N(C)C1=O | 590 nM |  | 
36 | CN1c2ccc(Cl)cc2N(c2ccccc2)C(=O)c2cn(Cc3ccc(CN4CCOCC4)cc3)nc21 | 1000 nM | 900 nM | 
